# Measured values published in article PMC5797143, “Epigenetic modulation of inflammation and synaptic plasticity promotes resilience against stress in mice” (Nature Communications, 2018).
# Tests used:
# Assay type in all cases: cell-based, mouse
# [1] = tested on: Toll-like receptor-4 mediated signaling pathways (JNK, p38, ERK, AKT); experiment: Multiplex ELISA of phosphorylated signaling proteins in PBMCs after LPS
# Method: To investigate how DHCA may attenuate IL-6 generation, we tested the effect of DHCA on Toll-like receptor-4 mediated signaling pathways. PBMCs were pretreated with DHCA and stimulated with LPS using the same protocol as during screening. Samples were taken at 0, 30 min, 60 min, 6 h and 16 h following LPS stimulation and cell lysates were subjected to a multiplex ELISA assay. […] Based on evidence that DNA methylation at a single CpG in the human IL-6 promoter region effectively alters IL-6 expression, we next tested whether DHCA can modulate IL-6 gene expression through methylation mechanisms. We treated PBMC cells with DHCA and measured the expression of enzymes essential for DNA methylation/demethylation. […] To investigate how methylation influences IL-6 gene expression, we employed the CpG-free luciferase reporter system. We cloned a ~280 bp CpG rich DNA segment from the mouse IL-6 promoter into a promoterless CpG-free reporter construct and transfected into N2a cells. We found the CpG-rich IL-6 promoter segment presented no inherent promoter activity as reflected by no differences in luciferase activity compared to the control construct (Fig. 2f). […] We then cloned CpG rich DNA segments from IL-6 introns 1, 3 or 4 into the CpG-free luciferase reporter construct with a minimal EF1 promoter and no enhancer activity. […] In contrast, the CpG-rich region of IL-6 intron 4 presented no observable enhancer activity (Fig. 2g). […] To test whether DHCA may influence the expression of other pro-inflammatory factors, we measured the level of secreted cytokines following LPS stimulation (Supplementary Fig. 3).
# Luminex xMAP multiplexed immunoassays were used to evaluate the levels of phosphorylated proteins in PBMCs pre-treated with DHCA for 16 h followed by LPS stimulation. PBMCs were washed once with PBS and immediately lysed with MilliplexMAP Cell Signaling Universal Lysis Buffer and applied to the assay following manufacturer’s instruction (EMD Millipore). The phosphoprotein analytes used were: AKT (Ser473), JNK (Thr183/Tyr185), ERK (Thr185/Tyr187), p38 […] (Millipore, MA). Multiplex MAP mouse cytokine/chemokine Panel (EMD Millipore) was used to measure the levels of 32 cytokines/chemokines in mouse plasma or PBMC cultures.
# [2] = tested on: pro-inflammatory cytokines; experiment: Secreted cytokines of PBMCs following LPS stimulation (multiplex)
# Method: To investigate how DHCA may attenuate IL-6 generation, we tested the effect of DHCA on Toll-like receptor-4 mediated signaling pathways. PBMCs were pretreated with DHCA and stimulated with LPS using the same protocol as during screening. Samples were taken at 0, 30 min, 60 min, 6 h and 16 h following LPS stimulation and cell lysates were subjected to a multiplex ELISA assay. […] Based on evidence that DNA methylation at a single CpG in the human IL-6 promoter region effectively alters IL-6 expression, we next tested whether DHCA can modulate IL-6 gene expression through methylation mechanisms. We treated PBMC cells with DHCA and measured the expression of enzymes essential for DNA methylation/demethylation. […] To investigate how methylation influences IL-6 gene expression, we employed the CpG-free luciferase reporter system. We cloned a ~280 bp CpG rich DNA segment from the mouse IL-6 promoter into a promoterless CpG-free reporter construct and transfected into N2a cells. We found the CpG-rich IL-6 promoter segment presented no inherent promoter activity as reflected by no differences in luciferase activity compared to the control construct (Fig. 2f). […] To test whether DHCA may influence the expression of other pro-inflammatory factors, we measured the level of secreted cytokines following LPS stimulation (Supplementary Fig. 3). […]
# [3] = tested on: enzymes involved in de novo methylation and demethylation; experiment: Expression of de novo methylation/demethylation enzymes in MSN-enriched primary culture; conditions: MSN-enriched primary cultures
# Excerpt: Stress-induced reduction of Rac1 expression is associated with a repressed chromatin state surrounding the promoter region of Rac1 in the NAc[11]. Since Mal-gluc can cross the BBB, we hypothesized that Mal-gluc may promote Rac1 expression, in part, by modulating chromatin acetylation. We first assessed the effect of Mal-gluc on HDACs that play key roles in chromatin deacetylation. […] Using site directed quantitative chromatin immunoprecipitation (qCHIP), we examined the permissive histone H3 acetylation (AcH3) in Mal-gluc treated MSN-enriched primary cultures.
# Total RNA from MSN-enriched cultures or brain NAc was isolated using the RNeasy Mini Kit (Qiagen, Valencia, CA, USA) and reverse transcribed. Gene expression was measured in four replicates by quantitative RT-PCR using Maxima SYBR Green master mix (Fermentas) in ABI Prism 7900HT. Primer sequences are listed in Supplementary Table 2. Mouse hypoxanthine phosphoribosyltransferase (HPRT) expression level was used as an internal control. Data were normalized using the 2^-ΔΔCt method. Levels of target gene mRNAs were expressed relative to those in control cultures or mice and plotted in GraphPad Prism.
# [4] = 30 min and 60 min following LPS, no further changes at 6 h and 16 h
# [5] = PBMCs, DHCA pretreatment, 0, 30 min, 60 min, 6 h, 16 h after LPS
structure (smiles),measurement,setting,value
"O=C(O)CCc1ccc(O)c(O)c1 [DHCA, 3(3,4-dihydroxy-phenyl) propionic acid]",decrease in AKT activation,[1]; [4],~ 10%
same,decrease in ERK activation,[1]; [4],~ 10%
same,activation (phosphorylation) of JNK,[1]; [5],no effect
same,activation (phosphorylation) of p38,[1]; [5],no effect
same,cytokine expression profile,[2]; PBMCs in the absence of LPS stimulation,did not influence cytokine expression profile
same,"LPS-induced production of cytokines (GM-CSF, IL-1β, IL-12 p40 and p70, IL-17, MCP-1)",[2]; PBMCs with LPS stimulation,significantly reduced LPS-induced production of cytokines
COc1cc(-c2[o+]c3cc(O)cc(O)c3cc2O[C@@H]2O[C@H](CO)[C@@H](O)[C@H](O)[C@H]2O)cc(OC)c1O [Mal-gluc],expression of enzymes of de novo methylation and demethylation,[3],did not affect
